Assay results taken from US20230234943A1, “TREX1 INHIBITORS AND USES THEREOF” (Tempest Therapeutics, Inc., priority 2020, published 2023).
pIC50: −log10 of the molar value.

Target: T1, Human TREX1 enzyme (amino acids 1-242) (Homo sapiens, UniProt Q9NSU2)
T1 construct: Human TREX1 enzyme (amino acids 1-242)
T1 sequence (Q9NSU2 1-242): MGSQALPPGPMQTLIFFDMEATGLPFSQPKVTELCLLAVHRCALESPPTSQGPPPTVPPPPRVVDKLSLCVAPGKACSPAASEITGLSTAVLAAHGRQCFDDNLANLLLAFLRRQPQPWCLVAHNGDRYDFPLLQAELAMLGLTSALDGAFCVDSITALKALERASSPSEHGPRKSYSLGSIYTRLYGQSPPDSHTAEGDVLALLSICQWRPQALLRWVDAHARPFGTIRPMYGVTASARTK
Assay: Human TREX1 enzymatic assay with dsDNA native oligonucleotide (Picogreen fluorescence)
Type: biochemical
Conditions: 2 mM dithiothreitol in assay buffer; 50 nM dsDNA oligonucleotide; 30 min preincubation at 25° C.; read-out: TREX1/Human + DTT IC50 AVG
Method in brief: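 Remaining dsDNA quantified by Picogreen fluorescence after EDTA quench, with no-enzyme and DMSO wells as controls. Reactions used 50 nM annealed oligonucleotide for 5–15 min at 25 °C, after a 30 min compound–enzyme preincubation (0.8–0.16 nM TREX1; 2% DMSO; pH 7.7 Tris, 5 mM MgCl2).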

Row | pIC50 | SMILES
1 | ≥ 7.00 | COc1cc(-c2nc3ccc(C(=O)NC(C)C)cc3n2C2(C)COC2)c(F)c(O)c1O [Example 252, 2-(2-fluoro-3,4-dihydroxy-5-methoxyphenyl)-N-isopropyl-1-(3-methyloxetan-3-yl)-1H-benzo[d]imidazole-6-carboxamide]
2 | 6.00 to 7.00 | COc1cc(-c2nc3ccc(C(O)C(F)(F)F)cc3n2C2(C)COC2)c(F)c(O)c1O (stereo not drawn) [Example 280, 3-fluoro-6-methoxy-4-(1-(3-methyloxetan-3-yl)-6-(2,2,2-trifluoro-1-hydroxyethyl)-1H-benzo[d]imidazol-2-yl)benzene-1,2-diol]
3 | ≥ 7.00 | CNC(=O)c1ccc2nc(-c3cc(OC)c(O)c(O)c3F)n(C3(C)CCC3)c2c1 [Example 310, 2-(2-fluoro-3,4-dihydroxy-5-methoxyphenyl)-N-methyl-1-(1-methylcyclobutyl)-1H-benzo[d]imidazole-6-carboxamide]
4 | 5.00 to 6.00 | COc1cc(-c2nc3ccc(N4CCC4)cc3n2C2COC2)cc(O)c1O [Example 285, 5-(6-(azetidin-1-yl)-1-(oxetan-3-yl)-1H-benzo[d]imidazol-2-yl)-3-methoxybenzene-1,2-diol]
5 | 6.00 to 7.00 | COc1cc(-c2nc3ccccc3n2C2(C)COC2)c(F)c(O)c1O [Example 232, 3-fluoro-6-methoxy-4-(1-(3-methyloxetan-3-yl)-1H-benzo[d]imidazol-2-yl)benzene-1,2-diol]
6 | 6.00 to 7.00 | COc1cc(-c2nc3c(Cl)c(Cl)ccc3n2C2(C)COC2)cc(O)c1O [Example 301, 5-(4,5-dichloro-1-(3-methyloxetan-3-yl)-1H-benzo[d]imidazol-2-yl)-3-methoxybenzene-1,2-diol]
7 | < 4.00 | COc1cc(-c2nc3cc(N4CCOCC4)ncc3[nH]2)cc(O)c1O [Example 55, 3-methoxy-5-(6-morpholino-3H-imidazo[4,5-c]pyridin-2-yl)benzene-1,2-diol]
8 | ≥ 7.00 | COc1cc(-c2nc3cc(NC(=O)C4CC4)ccc3n2C2(C)COC2)c(F)c(O)c1O [Example 204, N-[2-(2-fluoro-3,4-dihydroxy-5-methoxyphenyl)-1-(3-methyloxetan-3-yl)-1H-1,3-benzodiazol-5-yl]cyclopropanecarboxamide]
9 | 6.00 to 7.00 | COc1cc(-c2nc3cc(Cl)c(Cl)cc3n2C2(C)COC2)cc(O)c1O [Example 302, 5-(5,6-dichloro-1-(3-methyloxetan-3-yl)-1H-benzo[d]imidazol-2-yl)-3-methoxybenzene-1,2-diol]
10 | 6.00 to 7.00 | CNc1ccc2c(c1)nc(-c1cc(OC)c(O)c(O)c1F)n2C1(C)COC1 [Example 316, 3-fluoro-6-methoxy-4-(5-(methylamino)-1-(3-methyloxetan-3-yl)-1H-benzo[d]imidazol-2-yl)benzene-1,2-diol]
11 | 6.00 to 7.00 | COc1cc(-c2nc3ccc(C(=O)NC4CCNC4)cc3n2C2(C)COC2)c(F)c(O)c1O (stereo not drawn) [Example 261, 2-(2-fluoro-3,4-dihydroxy-5-methoxyphenyl)-1-(3-methyloxetan-3-yl)-N-(pyrrolidin-3-yl)-1H-benzo[d]imidazole-6-carboxamide]
12 | ≥ 7.00 | COc1cc(-c2nc3ccc(C(=O)NC45CC(C4)C5)cc3n2C2(C)COC2)c(F)c(O)c1O [Example 249, N-(bicyclo[1.1.1]pentan-1-yl)-2-(2-fluoro-3,4-dihydroxy-5-methoxyphenyl)-1-(3-methyloxetan-3-yl)-1H-benzo[d]imidazole-6-carboxamide]

Second part, the molecule before the results:

Row | SMILES | pIC50
13 | COc1cc(-c2nc3cc(N4CCN(C(=O)c5cccc(C)c5)CC4)ccc3[nH]2)cc(O)c1O [Example 154, (4-(2-(3,4-dihydroxy-5-methoxyphenyl)-1H-benzo[d]imidazol-5-yl)piperazin-1-yl)(m-tolyl)methanone] | 5.00 to 6.00
14 | COc1cc(-c2nc3cc(N4CCC4)ccc3n2C2COC2)c(F)c(O)c1O [Example 188, 4-(5-(azetidin-1-yl)-1-(oxetan-3-yl)-1H-benzo[d]imidazol-2-yl)-3-fluoro-6-methoxybenzene-1,2-diol] | 5.00 to 6.00
15 | COc1cc(-c2nc3ccccc3n2C2CN(S(C)(=O)=O)C2)c(C)c(O)c1O [Example 322] | 4.00 to 5.00
16 | COc1cc(-c2nc3cc(N4CCC4)ccc3[nH]2)c(C2CC2)c(O)c1O [Example 242, 4-(5-(azetidin-1-yl)-1H-benzo[d]imidazol-2-yl)-3-cyclopropyl-6-methoxybenzene-1,2-diol] | < 4.00
17 | COc1cc(-c2nc3cc(N4CCN(c5ccncc5)CC4)ccc3[nH]2)cc(O)c1O [Example 131, 3-methoxy-5-(5-(4-(pyridin-4-yl)piperazin-1-yl)-1H-benzo[d]imidazol-2-yl)benzene-1,2-diol] | 4.00 to 5.00
18 | CC(C)COc1cc(-c2nc3cccnc3n2CC(C)C)cc(O)c1O [Example 40, 3-isobutoxy-5-(3-isobutyl-3H-imidazo[4,5-b]pyridin-2-yl)benzene-1,2-diol] | < 4.00
19 | COc1cc(-c2nc3cc(N4CCN(C(=O)c5ccc(-c6ccccc6)cc5)CC4)ccc3[nH]2)cc(O)c1O [Example 112, [1,1′-biphenyl]-4-yl(4-(2-(3,4-dihydroxy-5-methoxyphenyl)-1H-benzo[d]imidazol-5-yl)piperazin-1-yl)methanone] | < 4.00
20 | COc1cc(-c2nc3ccncc3[nH]2)c(C)c(O)c1O [Example 78, 4-(3H-imidazo[4,5-c]pyridin-2-yl)-6-methoxy-3-methylbenzene-1,2-diol] | 4.00 to 5.00
21 | COc1cc(-c2nc3ccccc3n2C2COC2)c(F)c(O)c1O [Example 167, 3-fluoro-6-methoxy-4-(1-(oxetan-3-yl)-1H-benzo[d]imidazol-2-yl)benzene-1,2-diol] | 5.00 to 6.00
22 | COc1cc(-c2nc3cc(C4CCC4)ccc3[nH]2)cc(O)c1O [Example 268, 5-(5-cyclobutyl-1H-benzo[d]imidazol-2-yl)-3-methoxybenzene-1,2-diol] | < 4.00
23 | COc1cc(-c2nc3cc(N4CCN(C(=O)CCCC[C@@H]5SC[C@@H]6NC(=O)N[C@@H]65)CC4)ccc3[nH]2)cc(O)c1O [Example 23, (3aS,4S,6aR)-4-(5-(4-(2-(3,4-dihydroxy-5-methoxyphenyl)-1H-benzo[d]imidazol-5-yl)piperazin-1-yl)-5-oxopentyl)tetrahydro-1H-thieno[3,4-d]imidazol-2(3H)-one] | 5.00 to 6.00
24 | COc1cc(-c2nc3cc(N4CCN(C)C(C)(C)C4)ccc3[nH]2)cc(O)c1O [Example 121, 3-methoxy-5-(5-(3,3,4-trimethylpiperazin-1-yl)-1H-benzo[d]imidazol-2-yl)benzene-1,2-diol] | < 4.00
25 | O=C(O)c1ccc(-c2nc3ccccc3n2C2COC2)c(C(F)(F)F)c1O [Example 161, 2-hydroxy-4-(1-(oxetan-3-yl)-1H-benzo[d]imidazol-2-yl)-3-(trifluoromethyl)benzoic acid] | < 4.00
26 | O=C(O)c1ccc(-c2nc3cc(N4CCC4)ccc3[nH]2)cc1O [Example 114, 4-(5-(azetidin-1-yl)-1H-benzo[d]imidazol-2-yl)-2-hydroxybenzoic acid] | 4.00 to 5.00
27 | COc1cc(-c2nc3cc(N4CC(OC)C4)ccc3[nH]2)cc(O)c1O [Example 144, 3-methoxy-5-(5-(3-methoxyazetidin-1-yl)-1H-benzo[d]imidazol-2-yl)benzene-1,2-diol] | 4.00 to 5.00
28 | COc1cc(-c2nc3cc(N4CCN(C(=O)c5ccc(C(=O)O)cc5)CC4)ccc3[nH]2)cc(O)c1O [Example 127, 4-(4-(2-(3,4-dihydroxy-5-methoxyphenyl)-1H-benzo[d]imidazol-5-yl)piperazine-1-carbonyl)benzoic acid] | 4.00 to 5.00
29 | COc1cc(-c2nc3nc(N4CCOCC4)ncc3[nH]2)cc(O)c1O [Example 80, 3-methoxy-5-(2-morpholino-7H-purin-8-yl)benzene-1,2-diol] | < 4.00
30 | COc1cc(-c2nc3cc(N4CC(F)C4)ccc3[nH]2)cc(O)c1O [Example 145, 5-(5-(3-fluoroazetidin-1-yl)-1H-benzo[d]imidazol-2-yl)-3-methoxybenzene-1,2-diol] | < 4.00
31 | COc1cc(-c2nc3cc(N4CCN(C(=O)c5ccccc5C)CC4)ccc3[nH]2)cc(O)c1O [Example 99, (4-(2-(3,4-dihydroxy-5-methoxyphenyl)-1H-benzo[d]imidazol-5-yl)piperazin-1-yl)(o-tolyl)methanone] | 5.00 to 6.00
32 | COc1cc(-c2nc3cc(N4CCC4)ccc3[nH]2)c(F)c(O)c1O [Example 157, 4-(5-(azetidin-1-yl)-1H-benzo[d]imidazol-2-yl)-3-fluoro-6-methoxybenzene-1,2-diol] | 5.00 to 6.00
33 | C=CCCC(=O)N1CCN(c2ccc3c(c2)nc(-c2cc(O)c(O)c(OC)c2)n3C(=O)CCC=C)CC1 [Example 34, 1-(4-(2-(3,4-dihydroxy-5-methoxyphenyl)-1-(pent-4-enoyl)-1H-benzo[d]imidazol-5-yl)piperazin-1-yl)pent-4-en-1-one] | 4.00 to 5.00
34 | CCCCN1CCN(c2ccc3[nH]c(-c4cc(O)c(O)c(OC)c4)nc3c2)CC1 [Example 65, 5-(5-(4-butylpiperazin-1-yl)-1H-benzo[d]imidazol-2-yl)-3-methoxybenzene-1,2-diol] | < 4.00
35 | COCCN1CCN(c2ccc3[nH]c(-c4cc(O)c(O)c(OC)c4)nc3c2)CC1 [Example 61, 3-methoxy-5-(5-(4-(2-methoxyethyl)piperazin-1-yl)-1H-benzo[d]imidazol-2-yl)benzene-1,2-diol] | < 4.00
36 | COc1cc(-c2nc3cc(O)ccc3n2C2CCC2)c(C)c(O)c1O [Example 334, 4-(1-cyclobutyl-5-hydroxy-1H-benzo[d]imidazol-2-yl)-6-methoxy-3-methylbenzene-1,2-diol] | 6.00 to 7.00
